From ChEMBL document CHEMBL1148961, “10-membered macrolides from the insect pathogenic fungus Cordyceps militaris BCC 2816” (J Nat Prod, 2004)
Values after ≈ are worked out from the molar mass of the structure shown. Active and inactive are the calls of the source. The rule behind the calls is not given here.

Columns and labels:
Plasmodium falciparum [1] = test: Antimalarial activity against multidrug-resistant Plasmodium falciparum K1 after 24 hrs by [3H]hypoxanthine uptake; type: functional, organism-based
Plasmodium falciparum [2] = test: Antimalarial activity against multidrug-resistant Plasmodium falciparum K1 at <20 ug/mL after 24 hrs by [3H]hypoxanthine uptake; type: functional, organism-based

| Compound | IC50 (Plasmodium falciparum [1]) [µg/mL] | Activity (Plasmodium falciparum [2]) |
| --- | --- | --- |
| C[C@H]1[C@@H](O)O[C@@H]2O[C@@]3(C)CC[C@H]4[C@H](C)CC[C@@H]1[C@@]24OO3 [ARTENIMOL] | 0.0012 (≈ 0.00422 µM) |  |
| CO[C@H]1CC(=O)CC[C@@H](C)OC(=O)C[C@@H]1O |  | inactive |
| Nc1ncnc2c1ncn2[C@@H]1O[C@H](CO)C[C@H]1O [CORDYCEPIN] | 4.5 (≈ 17.9 µM) |  |
| C[C@@H]1CC[C@@H](O)/C=C/[C@@H](O)CC(=O)O1 |  | inactive |
| CO[C@@H]1CC(=O)CC[C@@H](C)OC(=O)C[C@@H]1O |  | inactive |
| C[C@@H]1CCC(=O)C[C@H](O)[C@@H](O)CC(=O)O1 |  | inactive |
